How the values were obtained:
hA1AR [1] = biological target: T1, hA1AR (Homo sapiens, UniProt P30542); type: cell-based; details: compared to standard full agonist CPA / NECA
T1 sequence (P30542 1-326): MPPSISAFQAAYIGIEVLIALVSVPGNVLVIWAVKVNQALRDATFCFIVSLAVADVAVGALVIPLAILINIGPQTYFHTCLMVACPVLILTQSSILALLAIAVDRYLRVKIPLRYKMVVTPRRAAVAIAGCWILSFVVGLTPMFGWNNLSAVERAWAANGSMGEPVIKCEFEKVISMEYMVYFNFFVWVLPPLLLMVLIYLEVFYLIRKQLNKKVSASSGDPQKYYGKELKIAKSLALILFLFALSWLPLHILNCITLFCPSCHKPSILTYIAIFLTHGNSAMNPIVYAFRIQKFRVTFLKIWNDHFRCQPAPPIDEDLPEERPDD

hA3AR = biological target: T2, hA3AR (Homo sapiens, UniProt P0DMS8); details: read-out: Affinity Ki, A3; CHO cells expressing hA3AR; ref [6], [7], and [12]; cited from earlier work
T2 sequence (P0DMS8 1-318): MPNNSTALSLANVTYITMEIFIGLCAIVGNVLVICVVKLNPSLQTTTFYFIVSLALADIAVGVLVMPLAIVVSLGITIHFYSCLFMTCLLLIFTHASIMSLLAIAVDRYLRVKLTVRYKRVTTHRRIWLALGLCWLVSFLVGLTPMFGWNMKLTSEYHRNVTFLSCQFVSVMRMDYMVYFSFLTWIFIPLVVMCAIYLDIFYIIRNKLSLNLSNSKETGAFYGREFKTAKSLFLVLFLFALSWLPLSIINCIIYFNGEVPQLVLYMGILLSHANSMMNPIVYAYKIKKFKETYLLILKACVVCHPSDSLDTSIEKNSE

hA1AR [2] = biological target: T1, hA1AR; details: read-out: Affinity Ki, A1; CHO cells expressing hA1AR; ref [6], [7], and [12]; cited from earlier work

| Compound | Agonist character at A1AR in cyclic AMP assay (hA1AR [1]) | Ki (hA3AR) | Ki (hA1AR [2]) |
| --- | --- | --- | --- |
| CCNC(=O)[C@H]1O[C@@H](n2cnc3c(N)ncnc32)[C@H](O)[C@@H]1O [NECA, 5′-N-ethylcarboxamidoadenosine] | full agonist |  |  |
| O[C@@H]1[C@H](O)[C@H]2C[C@@H]2[C@H]1n1cnc2c(NCc3cccc(I)c3)nc(Cl)nc21 [Compound 5, (1′S,2′R,3′S,4′R,5′S)-4′-[2-chloro-6-(3-iodobenzylamino)-purine]-2′,3′-O-dihydroxybicyclo-[3.1.0]hexane] |  | 0.00144 ± 0.0006 µM |  |
| CNC(=O)[C@@]12C[C@@H]1[C@@H](n1cnc3c(NC4CCCC4)nc(Cl)nc31)[C@H](O)[C@@H]2O [Compound 2, (1′S,2′R,3′S,4′R,5′S)-4-(2-chloro-6-(cyclopentylamino)-9H-purin-9-yl)-2,3-dihydroxy-N-methylbicyclo[3.1.0]hexane-1-carboxamide] |  | 0.0131 ± 0.0051 µM | 0.0183 ± 0.0063 µM |
| O[C@@H]1[C@H](O)[C@@H]2C[C@@H]2[C@H]1n1cnc2c(NC(C3CC3)C3CC3)nc(Cl)nc21 [Compound 21] | full agonism |  |  |
| CNC(=O)[C@@]12C[C@@H]1[C@@H](n1cnc3c(NCc4cccc(Cl)c4)nc(Cl)nc31)[C@H](O)[C@@H]2O [Compound 1, (1′S,2′R,3′S,4′R,5′S)-4′-{2-chloro-6-[(3-chlorophenylmethyl)amino]purin-9-yl}-1-(methylaminocarbonyl)bicyclo[3.1.0]hexane-2,3-diol] |  |  | 0.26 ± 0.06 µM |

Source: publication PMC3156476 (ACS medicinal chemistry letters, 2011)
